Measurements published in US20200339691A1, “PROTEINACEOUS MOLECULES AND USES THEREFOR” (priority 2018, published 2020).
Where a SMILES comes first, the peptide text is derived from it. The star is where a group is joined. Myristoyl = CCCCCCCCCCCCCC(=O)*

Assays:
[1] = system: CD44^hiCD24^lo CSCs in MDA-MB-231 cells; assay: FACS analysis of CD44^hiCD24^lo cancer stem cells in MDA-MB-231 cells treated with P1 analogues; assay type: cell-based, human; conditions: 50 μM peptide, 48 hours; for CD44^hiCD24^lo CSCs (%) / COI, Live Single CD44^hiCD24^lo CSCs (Cell Count): n = 1; for Average Inhibition of CSCs (%) / CD44^hiCD24^lo CSCs (%) Repeat 1 / CD44^hiCD24^lo CSCs (%) Repeat 2 / CD44^hiCD24^lo CSCs (%) Repeat 3: n = 3
Procedure: Analogues of P1 (Table 6) were designed and synthesized in accordance with the procedure of Example 5. The ability of these analogues to inhibit cancer stem cells was determined using FACS analysis on MDA-MB-231 cells, which constitutively contain approximately 90% CD44^hiCD24^lo cancer stem cells, treated with the peptides.
(§1) Non-adherent cells were removed during the washing steps.

MDA-MB-231 cells = assay type: cell-based, human; conditions: 50 μM peptide, 48 hours, n = 1
Text: as §1
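Throughout, for COI, Live Single Cells (Cell Count): live means Hoechst-negative events among single cells.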

| SMILES | Inhibition of CSCs (%) Repeat 1 [1] [%] | Inhibition of CSCs (%) Repeat 2 [1] [%] | Inhibition of CSCs (%) Repeat 3 [1] [%] | CD44^hiCD24^lo CSCs (%) [1] [%] | COI, Live Single CD44^hiCD24^lo CSCs (Cell Count) [1] | Average Inhibition of CSCs (%) [1] [%] | CD44^hiCD24^lo CSCs (%) Repeat 1 [1] [%] | CD44^hiCD24^lo CSCs (%) Repeat 2 [1] [%] | CD44^hiCD24^lo CSCs (%) Repeat 3 [1] [%] | COI (Cell Count) (MDA-MB-231 cells) | COI, Live Single Cells (Cell Count) (MDA-MB-231 cells) | COI, Single (Cell Count) (MDA-MB-231 cells) | Total Cell Count (MDA-MB-231 cells) |
| --- | --- | --- | --- | --- | --- | --- | --- | --- | --- | --- | --- | --- | --- |
| CCCCCCCCCCCCCC(=O)N[C@H](C(=O)N[C@@H](Cc1ccccc1)C(=O)N[C@H](C(=O)N[C@@H](Cc1ccccc1)C(=O)N[C@@H](CCCNC(=N)N)C(=O)N[C@@H](CC(C)C)C(=O)N[C@@H](CCCNC(=N)N)C(=O)N[C@@H](CCCCN)C(=O)NCC(=O)N[C@@H](C)C(=O)N[C@@H](CCSC)C(=O)N[C@@H](CCSC)C(=O)N[C@@H](CC(=O)O)C(=O)N[C@H](C(=O)N[C@@H](CCCCN)C(=O)N[C@@H](CCCCN)C(N)=O)C(C)C)[C@@H](C)CC)[C@@H](C)O [Peptide 2815318, Myristoyl-TFIFRLRKGAMMDVKK-NH2] (Myristoyl-TFIFRLRKGAMMDVKK-NH2) | 54.80 | 54.73 | 55.59 | 53.03 | 70 | 55.04 | 40.51 | 40.61 | 39.86 | 183 | 132 | 142 | 3480 |
| CCCCCCCCCCCCCC(=O)N[C@H](C(=O)N[C@@H](Cc1ccccc1)C(=O)N[C@H](C(=O)N[C@@H](Cc1ccccc1)C(=O)N[C@@H](CCCNC(=N)N)C(=O)N[C@@H](CC(C)C)C(=O)N[C@@H](CCCNC(=N)N)C(=O)N[C@@H](CCCCN)C(=O)NCC(=O)N[C@@H](CCCNC(=N)N)C(=O)N[C@@H](CCSC)C(=O)N[C@@H](CCSC)C(=O)N[C@@H](CC(=O)O)C(=O)N[C@@H](C)C(=O)N[C@@H](CCCCN)C(=O)N[C@@H](CCCCN)C(N)=O)[C@@H](C)CC)[C@@H](C)O [Peptide 2815315, Myristoyl-TFIFRLRKGRMMDAKK-NH2] (Myristoyl-TFIFRLRKGRMMDAKK-NH2) | 86.74 | 82.99 | 83.97 | 18.75 | 3 | 84.57 | 11.89 | 15.26 | 14.39 | 51 | 16 | 41 | 12122 |
| CCCCCCCCCCCCCC(=O)N[C@H](C(=O)N[C@@H](Cc1ccccc1)C(=O)N[C@H](C(=O)N[C@@H](Cc1ccccc1)C(=O)N[C@@H](CCCNC(=N)N)C(=O)N[C@@H](CC(C)C)C(=O)N[C@@H](CCCNC(=N)N)C(=O)N[C@@H](CCCCN)C(=O)N[C@@H](C)C(=O)N[C@@H](CCCNC(=N)N)C(=O)N[C@@H](CCSC)C(=O)N[C@@H](CCSC)C(=O)N[C@@H](CC(=O)O)C(=O)N[C@H](C(=O)N[C@@H](CCCCN)C(=O)N[C@@H](CCCCN)C(N)=O)C(C)C)[C@@H](C)CC)[C@@H](C)O [Peptide 2815310, Myristoyl-TFIFRLRKARMMDVKK-NH2] (Myristoyl-TFIFRLRKARMMDVKK-NH2) | 38.81 | 39.40 | 41.35 | 57.14 | 4 | 39.85 | 54.84 | 54.37 | 52.63 | 18 | 7 | 16 | 8883 |
| CCCCCCCCCCCCCC(=O)N[C@@H](CC(C)C)C(=O)N[C@H](C(=O)N[C@@H](Cc1ccccc1)C(=O)N[C@H](C(=O)N[C@@H](Cc1ccccc1)C(=O)N[C@@H](CCCNC(=N)N)C(=O)N[C@@H](CC(C)C)C(=O)N[C@@H](CCCNC(=N)N)C(=O)N[C@@H](CCCCN)C(=O)NCC(=O)N[C@@H](CCCNC(=N)N)C(=O)N[C@@H](CCSC)C(=O)N[C@@H](CCSC)C(=O)N[C@H](C(=O)N[C@H](C(=O)N[C@@H](CCCCN)C(=O)N[C@@H](CCCCN)C(N)=O)C(C)C)C(C)C)[C@@H](C)CC)[C@@H](C)O [Peptide 2853837, Myristoyl-LTFIFRLRKGRMMVVKK-NH2] (Myristoyl-LTFIFRLRKGRMMVVKK-NH2) | 93.82 | 93.76 | 88.86 | 5.53 | 13 | 92.15 | 5.54 | 5.59 | 10.00 | 452 | 235 | 364 | 4805 |
| CCCCCCCCCCCCCC(=O)N[C@@H](CC(C)C)C(=O)N[C@H](C(=O)N[C@@H](Cc1ccccc1)C(=O)N[C@@H](CCCCN)C(=O)N[C@@H](Cc1ccccc1)C(=O)N[C@@H](CCCNC(=N)N)C(=O)N[C@@H](CC(C)C)C(=O)N[C@@H](CCCNC(=N)N)C(=O)N[C@@H](CCCCN)C(=O)NCC(=O)N[C@@H](CCCNC(=N)N)C(=O)N[C@@H](CCSC)C(=O)N[C@@H](CCSC)C(=O)N[C@@H](CC(=O)O)C(=O)N[C@H](C(=O)N[C@@H](CCCCN)C(=O)N[C@@H](CCCCN)C(N)=O)C(C)C)[C@@H](C)O [Peptide 2853811, Myristoyl-LTFKFRLRKGRMMDVKK-NH2] (Myristoyl-LTFKFRLRKGRMMDVKK-NH2) | 57.93 | 62.10 | 67.22 | 39.06 | 25 | 62.42 | 37.70 | 34.00 | 29.41 | 79 | 64 | 69 | 1274 |
| CCCCCCCCCCCCCC(=O)N[C@@H](C)C(=O)N[C@@H](Cc1ccccc1)C(=O)N[C@H](C(=O)N[C@@H](Cc1ccccc1)C(=O)N[C@@H](CCCNC(=N)N)C(=O)N[C@@H](CC(C)C)C(=O)N[C@@H](CCCNC(=N)N)C(=O)N[C@@H](CCCCN)C(=O)NCC(=O)N[C@@H](CCCNC(=N)N)C(=O)N[C@@H](CCSC)C(=O)N[C@@H](CCSC)C(=O)N[C@@H](CC(=O)O)C(=O)N[C@H](C(=O)N[C@@H](CCCCN)C(=O)N[C@@H](CCCCN)C(N)=O)C(C)C)[C@@H](C)CC [Peptide 2815302, Myristoyl-AFIFRLRKGRMMDVKK-NH2] (Myristoyl-AFIFRLRKGRMMDVKK-NH2) | 89.69 | 91.79 | 94.73 | 19.63 | 86 | 92.07 | 9.24 | 7.36 | 4.73 | 516 | 438 | 466 | 5074 |
| CCCCCCCCCCCCCC(=O)N[C@@H](CC(C)C)C(=O)N[C@H](C(=O)N[C@@H](Cc1ccccc1)C(=O)N[C@H](C(=O)N[C@@H](Cc1ccccc1)C(=O)N[C@@H](CCCNC(=N)N)C(=O)N[C@@H](CC(C)C)C(=O)N[C@@H](CCCNC(=N)N)C(=O)N[C@@H](CCCCN)C(=O)N[C@@H](CCCCN)C(=O)N[C@@H](CCCNC(=N)N)C(=O)N[C@@H](CCSC)C(=O)N[C@@H](CCSC)C(=O)N[C@@H](CC(=O)O)C(=O)N[C@H](C(=O)N[C@@H](CCCCN)C(=O)N[C@@H](CCCCN)C(N)=O)C(C)C)[C@@H](C)CC)[C@@H](C)O [Peptide 2853828, Myristoyl-LTFIFRLRKKRMMDVKK-NH2] (Myristoyl-LTFIFRLRKKRMMDVKK-NH2) | 89.25 | 91.29 | 90.17 | 10.71 | 3 | 90.23 | 9.64 | 7.81 | 8.82 | 182 | 28 | 146 | 3309 |
| CCCCCCCCCCCCCC(=O)N[C@H](C(=O)N[C@@H](Cc1ccccc1)C(=O)N[C@H](C(=O)N[C@@H](Cc1ccccc1)C(=O)N[C@@H](CCCNC(=N)N)C(=O)N[C@@H](C)C(=O)N[C@@H](CCCNC(=N)N)C(=O)N[C@@H](CCCCN)C(=O)NCC(=O)N[C@@H](CCCNC(=N)N)C(=O)N[C@@H](CCSC)C(=O)N[C@@H](CCSC)C(=O)N[C@@H](CC(=O)O)C(=O)N[C@H](C(=O)N[C@@H](CCCCN)C(=O)N[C@@H](CCCCN)C(N)=O)C(C)C)[C@@H](C)CC)[C@@H](C)O [Peptide 2815307, Myristoyl-TFIFRARKGRMMDVKK-NH2] (Myristoyl-TFIFRARKGRMMDVKK-NH2) | 24.79 | 25.54 | 36.94 | 62.77 | 86 | 29.09 | 67.40 | 66.80 | 56.59 | 182 | 137 | 164 | 10681 |
